Assays:
Cannabinoid receptor 1 [1] = target: Cannabinoid receptor 1 (Rattus norvegicus, UniProt P20272); test: Binding affinity towards rat forebrain cannabinoid receptor 1 using [3H]CP-55940
Cannabinoid receptor 2 = Cannabinoid receptor 2 (Mus musculus, UniProt P47936); test: Binding affinity towards mouse spleen cannabinoid receptor 2 using [3H]CP-55940; format: tissue-based
Cannabinoid receptor 1 [2] = target: T1, Cannabinoid receptor 1 (Mus musculus, UniProt P47746); test: Binding affinity towards mouse hippocampal membranes cannabinoid receptor 1 using [131I]-(R)-8
Cannabinoid receptor 1 [3] = target: T1, Cannabinoid receptor 1; test: Binding affinity towards mouse hippocampal membranes cannabinoid receptor 1 using [3H]SR-141,716A

Cannabinoid receptor 2, sequence (P47936 whole entry): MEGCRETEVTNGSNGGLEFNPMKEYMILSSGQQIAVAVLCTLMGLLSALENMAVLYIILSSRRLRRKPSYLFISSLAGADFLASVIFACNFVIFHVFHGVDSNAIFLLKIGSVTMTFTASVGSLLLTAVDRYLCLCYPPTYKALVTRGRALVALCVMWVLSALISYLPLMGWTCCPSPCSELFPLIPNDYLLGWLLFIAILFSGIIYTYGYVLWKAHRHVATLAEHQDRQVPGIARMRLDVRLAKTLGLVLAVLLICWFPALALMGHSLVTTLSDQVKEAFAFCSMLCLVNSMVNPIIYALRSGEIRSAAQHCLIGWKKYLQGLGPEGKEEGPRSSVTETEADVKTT
Cannabinoid receptor 1 (Rattus norvegicus, UniProt P20272), sequence (P20272 whole entry): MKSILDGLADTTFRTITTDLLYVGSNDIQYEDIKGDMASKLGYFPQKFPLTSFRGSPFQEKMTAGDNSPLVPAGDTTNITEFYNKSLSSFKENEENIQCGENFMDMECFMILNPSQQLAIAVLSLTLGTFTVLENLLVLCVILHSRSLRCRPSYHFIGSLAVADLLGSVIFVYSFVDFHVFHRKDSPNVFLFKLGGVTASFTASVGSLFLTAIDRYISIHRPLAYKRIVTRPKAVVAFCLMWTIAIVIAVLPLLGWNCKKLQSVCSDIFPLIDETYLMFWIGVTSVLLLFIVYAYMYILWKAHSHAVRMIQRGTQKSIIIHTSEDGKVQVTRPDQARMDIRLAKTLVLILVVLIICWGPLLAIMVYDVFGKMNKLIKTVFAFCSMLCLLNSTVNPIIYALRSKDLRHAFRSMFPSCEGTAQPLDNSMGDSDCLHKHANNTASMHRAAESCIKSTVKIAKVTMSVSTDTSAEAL
T1 sequence (P47746 whole entry): as the sequence (P20272 whole entry) above, with E95D counted along it

SMILES | Ki (Cannabinoid receptor 1 [1]) | Ki (Cannabinoid receptor 2) | Ki (Cannabinoid receptor 1 [2]) | Ki (Cannabinoid receptor 1 [3])
CN1CCCC[C@H]1Cn1cc(C(=O)c2ccccc2I)c2ccccc21 | 560 nM |  |  | 
Cc1c(C(=O)c2ccc(I)cc2)c2ccccc2n1CC1CCCCN1C (configuration not stated) |  | 790 nM |  | 
Cc1c(C(=O)c2cccc(I)c2)c2ccccc2n1CC1CCCCN1C (configuration not stated) | 2900 nM | 9600 nM |  | 
CN1CCCCC1Cn1cc(C(=O)c2ccccc2I)c2ccccc21 (configuration not stated) |  |  | 0.2 nM | 1.3 nM
CN1CCCCC1Cn1cc(C(=O)c2ccc(I)c3ccccc23)c2ccccc21 (configuration not stated) |  | 5.3 nM |  | 
CN1CCCCC1Cn1cc(C(=O)c2cccc3ccccc23)c2ccc(I)cc21 (configuration not stated) | 18 nM | 9.8 nM |  | 
CN1CCCCC1Cn1cc(C(=O)c2cccc3ccccc23)c2ccccc21 (configuration not stated) | 0.75 nM | 1.91 nM |  | 
Cc1c(C(=O)c2ccccc2I)c2ccccc2n1CC1CCCCN1C (single isomer, unassigned; (+)) | 6.7 nM | 10 nM |  | 
Cc1c(C(=O)c2ccccc2I)c2ccccc2n1CC1CCCCN1C (single isomer, unassigned; (-)) | 1200 nM | 83 nM |  | 
Cc1c(C(=O)c2ccccc2I)c2ccccc2n1CC1CCCCN1C (stereo in doubt; 5) | 34 nM | 34 nM |  | 
